What was measured:
Type in all cases: cell-based
[1] = test system: Pseudomonas aeruginosa MB-2824; assay: In vitro antibacterial spectrum profile, agar diffusion; settings: read-out: Inhib. Zone Diam.
[2] = test system: Brucella bronchiseptica ATCC 4617; assay: microbe, parasite or virus in culture; settings: Bordetella bronchiseptica, ATCC4617, read-out: Inhib. Zone Diam.
[3] = test system: Klebsiella pneumoniae MB-1264; assay: In vitro antibacterial spectrum profile, agar diffusion; settings: read-out: Inhib. Zone Diam.
[4] = test system: Alcaligenes faecalis ATCC 213; assay: as above; settings: read-out: Inhib. Zone Diam.
[5] = test system: Vibrio percolans + Aerobacter Lactamase MB-1272; assay: In vitro antibacterial spectrum profile, agar diffusion, with Aerobacter lactamase; settings: Comamonas terrigena, read-out: Inhib. Zone Diam.
[6] = test system: Streptoccocus faecium MB-2820; assay: In vitro antibacterial spectrum profile, agar diffusion; settings: read-out: Inhib. Zone Diam.
[7] = test system: Aerobacter aerogenes MB-835; assay: as above; settings: Klebsiella aerogenes, MB835, read-out: Inhib. Zone Diam.
[8] = test system: Proteus vulgaris MB-1012; assay: as above; settings: read-out: Inhib. Zone Diam.
[9] = test system: Bacillus sp. MB-633; assay: as above; settings: read-out: Inhib. Zone Diam.
Procedure: The test to determine the antibiotic spectrum profile of antibiotic 890A2 is carried out by saturating 1/4 inch diameter paper discs in a solution of antibiotic 890A2 in 5% methanol at a concentration of 5 μg./ml.; air drying the saturated paper discs and placing them on the surface of 100 × 15 mm. petri plates containing 5 ml. of seeded nutrient agar plus 0.2% yeast extract.
The test to determine the antibiotic spectrum profile of antibiotic 890A5 is carried out by application of a 0.015 ml. droplet of a 33 μg./ml. aqueous solution of the antibiotic on the surface of a 100 × 15 mm. petri plate containing 5 ml. of seeded nutrient agar plus 0.2% yeast extract.

[10] = test system: Proteus mirabilis MB-3126; assay: as above; settings: read-out: Inhib. Zone Diam.
[11] = test system: Xanthomonas vesicatoria MB-815; assay: as above; settings: read-out: Inhib. Zone Diam.
[12] = test system: Pseudomonas aeruginosa MB-979; assay: as above; settings: read-out: Inhib. Zone Diam.
[13] = test system: Streptococcus agalactiae MB-2875; assay: as above; settings: read-out: Inhib. Zone Diam.
[14] = test system: Vibrio percolans resistant to ceph. C) MB-2566; assay: as above; settings: Comamonas terrigena, read-out: Inhib. Zone Diam.
[15] = test system: Bacillus subtilis ATCC 6633; assay: as above
[16] = test system: Staphylococcus aureus ATCC 6538 P; assay: as above
[17] = test system: Pseudomonas stutzeri ATCC 11607; assay: as above; settings: Stutzerimonas stutzeri, ATCC11607, read-out: Inhib. Zone Diam.
[18] = test system: Escherichia coli MB-1418; assay: as above; settings: read-out: Inhib. Zone Diam.
[19] = test system: Staphylococcus aureus (res. methicillin) MB-2949; assay: as above; settings: read-out: Inhib. Zone Diam.
[20] = test system: Vibrio percolans ATCC 8461; assay: as above; settings: Comamonas terrigena, ATCC8461, read-out: Inhib. Zone Diam.
[21] = test system: Sarcina lutea ATCC 9341; assay: as above; settings: Micrococcus luteus, ATCC9341, read-out: Inhib. Zone Diam.
[22] = test system: Streptococcus faecalis MB-753; assay: as above; settings: Enterococcus faecalis, MB753, read-out: Inhib. Zone Diam.
[23] = test system: Erwinia atroseptica ATCC 4466; assay: as above; settings: Pectobacterium atrosepticum, ATCC4466, read-out: Inhib. Zone Diam.
[24] = test system: Corynebacterium pseudodiph. ATCC 9742; assay: as above; settings: read-out: Inhib. Zone Diam.
[25] = test system: Escherichia coli ATCC 9637; assay: as above; settings: read-out: Inhib. Zone Diam.
[26] = test system: Salmonella gallinarum MB-1287; assay: as above; settings: Salmonella enterica, read-out: Inhib. Zone Diam.
[27] = test system: Proteus vulgaris ATCC 21100; assay: as above; settings: read-out: Inhib. Zone Diam.
[28] = 890A5 33 μg./ml., 0.015 ml. droplet
[29] = 890A2 5 μg./ml., 1/4 inch paper disc

`CC(=O)NC=CSC1=C(C(=O)O)N2C(=O)C(C(C)O)C2C1` (stereo not drawn) [Antibiotic 890A5] showed a zone of inhibition at 33 µg/mL ([1]; MB2824, 890A5 33 μg./ml., 0.015 ml. droplet) of 0 mm, a zone of inhibition at 33 µg/mL [2] of 22 mm and a zone of inhibition at 33 µg/mL ([3]; MB1264, 890A5 33 μg./ml., 0.015 ml. droplet) of 27 mm. For the same compound, the zone of inhibition at 33 µg/mL ([4]; ATCC213, 890A5 33 μg./ml., 0.015 ml. droplet) was 25 mm, the zone of inhibition at 33 µg/mL [5] was 36 mm and the zone of inhibition at 33 µg/mL [6, 28] was 0 mm. The zone of inhibition at 33 µg/mL [7, 28] was 24 mm, the zone of inhibition at 33 µg/mL ([8]; MB1012, 890A5 33 μg./ml., 0.015 ml. droplet) was 23 mm and the zone of inhibition at 33 µg/mL ([9]; SP.MB633, 890A5 33 μg./ml., 0.015 ml. droplet) was 18 mm. It also gave a zone of inhibition at 33 µg/mL ([10]; MB3126, 890A5 33 μg./ml., 0.015 ml. droplet) of 20 mm, a zone of inhibition at 33 µg/mL ([11]; MB815, 890A5 33 μg./ml., 0.015 ml. droplet) of 20 mm and a zone of inhibition at 33 µg/mL ([12]; MB979, 890A5 33 μg./ml., 0.015 ml. droplet) of 0 mm. For the same compound, the zone of inhibition at 33 µg/mL ([13]; MB2875, 890A5 33 μg./ml., 0.015 ml. droplet) was 27 mm, the zone of inhibition at 33 µg/mL [14] was 35 mm and the zone of inhibition at 33 µg/mL ([15]; ATCC6633, read-out: Inhib. Zone Diam.) was 27 mm. The zone of inhibition at 33 µg/mL ([16]; ATCC6538, 890A5 33 μg./ml., 0.015 ml. droplet, read-out: Inhib. Zone Diam.) was 34 mm, the zone of inhibition at 33 µg/mL [17, 28] was 14 mm and the zone of inhibition at 33 µg/mL ([18]; MB1418, 890A5 33 μg./ml., 0.015 ml. droplet) was 27 mm. The zone of inhibition at 33 µg/mL [19] was 15 mm, the zone of inhibition at 33 µg/mL [20, 28] was 32 mm and the zone of inhibition at 33 µg/mL [21, 28] was 40 mm. It also gave a zone of inhibition at 33 µg/mL [22, 28] of 0 mm, a zone of inhibition at 33 µg/mL [23, 28] of 21 mm and a zone of inhibition at 33 µg/mL ([24]; ATCC9742, 890A5 33 μg./ml., 0.015 ml. droplet) of 33 mm. For the same compound, the zone of inhibition at 33 µg/mL ([25]; ATCC9637, 890A5 33 μg./ml., 0.015 ml. droplet) was 24 mm, the zone of inhibition at 33 µg/mL [26, 28] was 26 mm and the zone of inhibition at 33 µg/mL ([27]; ATCC21100, 890A5 33 μg./ml., 0.015 ml. droplet) was 27 mm.
Work on `CC(=O)NC=CSC1=C(C(=O)O)N2C(=O)C(C(C)O)C2C1` (stereo not drawn) [Antibiotic 890A2] yielded a zone of inhibition at 5 µg/mL ([1]; MB2824, 890A2 5 μg./ml., 1/4 inch paper disc) of 13 mm, a zone of inhibition at 5 µg/mL [2] of 29 mm and a zone of inhibition at 5 µg/mL ([3]; MB1264, 890A2 5 μg./ml., 1/4 inch paper disc) of 31 mm. It also gave a zone of inhibition at 5 µg/mL ([4]; ATCC213, 890A2 5 μg./ml., 1/4 inch paper disc) of 34 mm, a zone of inhibition at 5 µg/mL [5] of 31 mm and a zone of inhibition at 5 µg/mL [6, 29] of 22 mm. The zone of inhibition at 5 µg/mL [7, 29] was 27 mm, the zone of inhibition at 5 µg/mL ([8]; MB1012, 890A2 5 μg./ml., 1/4 inch paper disc) was 11 mm and the zone of inhibition at 5 µg/mL ([9]; SP.MB633, 890A2 5 μg./ml., 1/4 inch paper disc) was 40 mm. For the same compound, the zone of inhibition at 5 µg/mL ([10]; MB3126, 890A2 5 μg./ml., 1/4 inch paper disc) was 22 mm, the zone of inhibition at 5 µg/mL ([11]; MB815, 890A2 5 μg./ml., 1/4 inch paper disc) was 29 mm and the zone of inhibition at 5 µg/mL ([12]; MB979, 890A2 5 μg./ml., 1/4 inch paper disc) was 0 mm. For the same compound, the zone of inhibition at 5 µg/mL ([13]; MB2875, 890A2 5 μg./ml., 1/4 inch paper disc) was 32 mm, the zone of inhibition at 5 µg/mL [14] was 11 mm and the zone of inhibition at 5 µg/mL ([15]; ATCC6633, 890A2 5 μg./ml., 1/4 inch paper disc, read-out: Inhib. Zone Diam.) was 42 mm. The zone of inhibition at 5 µg/mL ([16]; ATCC6538, read-out: Inhib. Zone Diam.) was 34 mm, the zone of inhibition at 5 µg/mL [17, 29] was 19 mm and the zone of inhibition at 5 µg/mL ([18]; MB1418, 890A2 5 μg./ml., 1/4 inch paper disc) was 32 mm. It also gave a zone of inhibition at 5 µg/mL [19, 29] of 11 mm, a zone of inhibition at 5 µg/mL [20, 29] of 31 mm and a zone of inhibition at 5 µg/mL [21, 29] of 42 mm. The zone of inhibition at 5 µg/mL [22, 29] was 12 mm, the zone of inhibition at 5 µg/mL [23, 29] was 26 mm and the zone of inhibition at 5 µg/mL ([24]; ATCC9742, 890A2 5 μg./ml., 1/4 inch paper disc) was 35 mm. It also gave a zone of inhibition at 5 µg/mL ([25]; ATCC9637, 890A2 5 μg./ml., 1/4 inch paper disc) of 29 mm, a zone of inhibition at 5 µg/mL [26, 29] of 33 mm and a zone of inhibition at 5 µg/mL ([27]; ATCC21100, 890A2 5 μg./ml., 1/4 inch paper disc) of 30 mm.
